{"source": "patent US7102000B2", "about": "“Heterocyclic amide derivatives for the treatment of diabetes and other diseases” (Incyte San Diego Inc., priority 2002, dated 2006)", "key": {"KKA^y mice": {"system": "KKA^y mice", "test": "Oral treatment of type 2 diabetes in KKA^y mice (serum glucose, triglyceride, cholesterol)", "assay_type": "in vivo, mouse", "conditions": "KKA^y mice, oral once daily, vs control mice, FIGS. 2a–d", "text": "The procedure for this in-vivo assay for anti-diabetes activity was described in detail by Iwatsuka, et al. (1970 General Survey of Diabetic Features of Yellow KK Mice. Endocrinol. Japon. 17: 23–35, incorporated herein in its entirety by reference).\nExperimental Procedures: Six to eight week-old male KKA^y mice (obtained from Jackson Labs of Bar Harbord, Me.) were housed in a fixed 12–12-hr artificial light-dark cycle, and maintained on a standard rodent diet provided ad libitum. Animals were allowed two days to acclimate in this experimental environment prior to the initiation of the study.\nPrior to initiation of treatment with the compounds of the invention, the animals were bled from the tail vein (100–200 μL of whole blood) and serum levels of glucose and triglycerides were measured in duplicate (Trinder kits; Sigma, St. Louis, Mo.). Based on these initial measures, animals were sorted into groups with approximately the same average serum glucose levels. Once sorted, the animals were housed one per cage and provided rodent diet ad libitum. Unless otherwise indicated, compounds were suspended in sesame oil, and administered by oral gavage once daily to animals in a volume of 3 ml/kg/dose.\nTreatment Group A (n=5/group): (See Results in FIG. 2a) • 1) KKA^y vehicle control (sesame oil) • 2) Compound 1 (3 mg/kg) • 3) Compound 1 (10 mg/kg) • 4) Compound 2 (3 mg/kg) • 5) Compound 2 (10 mg/kg)\nTreatment Group B (n=6/group): (See Results in FIG. 2b) • 1) KKA^y vehicle control (sesame oil) • 2) Compound 11 (15 mg/kg)\nTreatment Group C (n=6/group): (See Results in FIG. 2c) • 1) KKA^y vehicle control (sesame oil) • 2) Compound 13 (15 mg/kg)\nTreatment Group D (n=6/group): (See Results in FIG. 2d) • 1) KKA^y vehicle control (CMC) • 2) Compound 25 (3 mg/kg, CMC) Compound 25 was suspended in a solution of carboxymethyl cellulose (CMC; 1% carboxy methyl cellulose in H2O, with 10% polyethelene glycol 400), and administered to animals in a volume of 5 ml/kg/dose.\nTreatment Group E (n=5/group): (See Results in FIG. 2e) • 1) KKA^y vehicle control (10% HPβCD) • 2) Compound 25 (1 mg/kg) • 3) Compound 25 (3 mg/kg) • 4) Compound 25 (10 mg/kg) Compound 25 was dissolved in a 10% hydroxy propyl beta cyclodextrin solution, and administered to animals in a volume of 10 ml/kg/dose.\nSerum glucose, triglyceride and/or cholesterol levels were measured in duplicate. The blood is kept at room temperature to allow coagulation, after which the serum is separated and assayed for glucose, triglyceride and/or cholesterol levels. As shown in FIGS. 2a–2d all of the compounds tested reduced serum glucose and triglyceride levels, some with doses as low as 3 mg/kg when administered once a day."}, "[1]": {"system": "diet-induced hypercholesterolemic Sprague Dawley rats", "test": "Diet-induced hypercholesterolemia in wild type Sprague Dawley rats (total, HDL, LDL cholesterol)", "assay_type": "in vivo, rat", "conditions": "Sprague Dawley rats on atherogenic diet, oral once daily, day 5, FIGS. 5a–c", "text": "Experimental Procedure: Six week-old male Sprague Dawley rats (obtained from Harlan of San Diego, Calif.) were housed in a fixed 12—12-hr artificial light-dark cycle, and maintained on a high cholesterol atherogenic diet (Paigen's Diet, obtained from Research Diet Inc. of New Brounswick, N.J.) was provided ad libitum. Animals were allowed six days to acclimate in this experimental environment prior to the initiation of the study.\nPrior to initiation of treatment, the animals were bled from the tail vein (100–200 μL of whole blood) and serum levels of cholesterol were measured in duplicate (Cholesterol Infinity kits; Sigma, St. Louis, Mo.). Based on these initial measures, animals were sorted into groups with approximately the same average total cholesterol levels. Once sorted, the animals were housed three per cage and maintained on Paigen's diet ad libitum. All compounds to be tested were suspended in sesame oil and administered in a final volume of 3 ml/kg. Drug is administered by oral gavage once daily at the beginning of the artificial light cycle. To obtain a base line for lipid measurement, a control group maintained on standart rodent diet is included (lean control).\nTreatment Group A (n=6/group): (See Results in FIG. 5a) • 1) Lean control (Sesame Oil) • 2) Control • 3) Compound 2 (0.3 mg/kg) • 4) Compound 2 (1 mg/kg) • 5) Compound 2 (3 mg/kg)\nTreatment Group B (n=6/group): (See Results in FIG. 5b) • 1) Lean control (Sesame Oil) • 2) Control • 3) Compound 6 (3 mg/kg)\nTreatment Group C (n=6/group): (See Results in FIG. 5c) • 1) Lean control (10% HPβCD) • 2) Control • 3) Compound 25 (1 mg/kg) • 4) Compound 25 (3 mg/kg) • 5) Compound 25 (10 mg/kg) • 6) Compound 25 (15 mg/kg) • The compounds were dissolved in a 10% hydroxy propyl beta cyclodextrin solution, and administered to animals in a volume of 10 ml/kg/dose.\nTo monitor the effect of the tested compounds, animals were bled from the tail vein at the end of the dark cycle on days 0 (for sorting) and day 5 of the treatment period. Fed serum cholesterol levels were measured in duplicate. The blood is kept at room temperature to allow coagulation, after which the serum is separated and assayed for total cholesterol (Infinity reagent, Sigma), HDL cholesterol (using HDL precipitating reagent and infinity reagent, Sigma) and LDL cholesterol (EZLDL kit, Sigma). As shown in FIGS. 5a–c, all compounds tested show significant reduction in total and LDL cholesterol levels and a significant increase in HDL cholesterol levels compared to high fat fed control animals."}, "[2]": {"system": "carcinogen induced mammary tumors", "test": "Progression of carcinogen induced mammary tumors in Sprague Dawley rats", "assay_type": "in vivo, rat", "conditions": "oral once daily for four weeks, FIG. 6; for growth / progression of mammary (breast cancer) tumors: vs vehicle treated controls; for number of static tumors: compared to control animals", "description": "Procedure: Five week-old female Sprague Dawley rats (Harlan) were housed in a fixed 12–12-hr artificial light-dark cycle, and maintained on a standard rodent diet provided ad libitum. Animals were allowed two days to acclimate in this experimental environment prior to the initiation of the study.\nTo induce mammary tumors, the female […] were injected intraperitoneally with the carcinogen n-nitroso-n-methylurea, in a single dose of 50 mg/kg in acidified normal saline (pH 4 w/acetic acid) at a final volume of 10 mg/ml (5 ml/kg). After eight weeks, mammary tumors are detected, and the tumor bearing females are sorted into treatment groups. Once sorted, the animals were housed four per cage and provided rodent diet ad libitum. All animals are treated with compound 1 or a vehicle for four weeks, during which time changes in tumor size are monitored. Tumors were classified as regressing, static or progressing.\nTreatment groups (n=8/group): • 1) Control (sesame oil) • 2) Compound 6 (20 mg/kg) • 3) Compound 11 (100 mg/kg) • 4) Compound 13 (50 mg/kg) • 5) Compound 24 (50 mg/kg) • 6) Compound 25 (20 mg/kg) • 7) Compound 25 (100 mg/kg)\nAll of the compounds tested were suspended in sesame oil, and administered to animals in a volume of 3 ml/kg/dose, except compound 25 which was dissolved in a 10% hydroxy propyl beta cyclodextrin solution, and administered to animals in a volume of 10 ml/kg/dose. All treatments were administered by oral gavage once daily for four weeks.\nTo monitor the effect of the tested compound, animals were examined for mammary tumors once every week. Tumors were classified into one of three categories, progressing, static or regressing."}}}
{"molecule": "Cc1cc2c(cc1-c1cc(/C=C3\\SC(=O)NC3=O)ccc1OC(F)(F)F)N(C)C(=O)CC2(C)C", "note": "[Compound 1, 5-[3-(1,4,4,6-Tetramethyl-2-oxo-1,2,3,4-tetrahydro-quinolin-7-yl)-4-trifluoromethoxy-benzylidene]-thiazolidine-2,4-dione]", "values": [{"measurement": "serum glucose level", "setting": "KKA^y mice", "value": "decrease"}, {"measurement": "serum triglyceride level", "setting": "KKA^y mice", "value": "decrease"}]}
{"molecule": "CCN1C(=O)CC(C)(C)c2cc(C)c(-c3cc(/C=C4\\SC(=O)NC4=O)ccc3Cl)cc21", "note": "[Compound 6, 5-[3-(1-Ethyl-4,4,6-trimethyl-2-oxo-1,2,3,4-tetrahydro-quinolin-7-yl)-4-chloro-benzylidene]-thiazolidine-2,4-dione]", "values": [{"measurement": "HDL cholesterol", "setting": "[1]", "value": "increasing"}, {"measurement": "LDL cholesterol", "setting": "[1]", "value": "decrease"}, {"measurement": "total cholesterol", "setting": "[1]", "value": "decrease"}, {"measurement": "growth / progression of mammary (breast cancer) tumors", "setting": "[2]", "value": "slow or cause regression"}]}
{"molecule": "Cc1cc2c(cc1-c1cc(/C=C3\\SC(=O)NC3=O)ccc1OC(F)(F)F)N(C(C)C)C(=O)CC2(C)C", "note": "[Compound 11, 5-[3-(1-Isopropyl-4,4,6-trimethyl-2-oxo-1,2,3,4-tetrahydro-quinolin-7-yl)-4-trifluoromethoxy-benzylidene]-thiazolidine-2,4-dione]", "values": [{"measurement": "serum glucose level", "setting": "KKA^y mice", "value": "decrease"}, {"measurement": "serum triglyceride level", "setting": "KKA^y mice", "value": "decrease"}, {"measurement": "regression of tumors", "setting": "[2]", "value": "without causing any regressions"}, {"measurement": "number of static tumors", "setting": "[2]", "value": "only increase the number of static tumors"}, {"measurement": "growth / progression of mammary (breast cancer) tumors", "setting": "[2]", "value": "slow or cause regression"}]}
{"molecule": "CCN1C(=O)CC(C)(C)c2cc(C)c(-c3c(F)c(/C=C4\\SC(=O)NC4=O)cc(F)c3OC)cc21", "note": "[Compound 13, 5-[3-(1-Ethyl-4,4,6-trimethyl-2-oxo-1,2,3,4-tetrahydro-quinolin-7-yl)-2,5-difluoro-4-methoxy-benzylidene]-thiazolidine-2,4-dione]", "values": [{"measurement": "serum glucose level", "setting": "KKA^y mice", "value": "decrease"}, {"measurement": "serum triglyceride level", "setting": "KKA^y mice", "value": "decrease"}, {"measurement": "regression of tumors", "setting": "[2]", "value": "without causing any regressions"}, {"measurement": "number of static tumors", "setting": "[2]", "value": "only increase the number of static tumors"}, {"measurement": "growth / progression of mammary (breast cancer) tumors", "setting": "[2]", "value": "slow or cause regression"}]}
